Measurements as given in patent US20240226117A1, “TREATMENT OF CONGENITAL ADRENAL HYPOPLASIA” (ReveraGen BioPharma, Inc., priority 2021, published 2024).

What was measured:
[1] = VBP15-002 Phase IIa multiple ascending dose trial: pharmacokinetics and safety; assay type: in vivo, human; conditions: DMD patients
Method: Vamorolone clinical studies have been conducted in adult male volunteers and boys with DMD, a disorder in which skeletal muscle is in a chronic inflammatory state. Two consecutive open-label dose-ranging studies in 48 DMD patients aged 4 to <7 years (corticosteroid-naïve) were conducted (Phase IIa, VBP15-002; Phase IIa, VBP15-003). Doses were tested over a 24-fold dose range (0.25, 0.75, 2.0, and 6.0 mg/kg/day), with 12 participants per group. The first multiple ascending dose (MAD) cohort trial-tested pharmacokinetics (PK) and safety for 2 weeks of drug dosing followed by a 2-week washout (VBP15-002). […] All DMD participants completed the MAD study and then continued on the same dose for a 24-week dose-finding (efficacy and safety) extension study (VBP15-003).
Three consecutive clinical trials of vamorolone treatment of DMD were conducted by CINRG (VBP15-002 [NCT02760264]: VBP15-003 [NCT02760277]: VBP15-LTE [NCT03038399]). A total of 48 participants (ages 4 to <7 years) were initially enrolled into VBP15-002, with trial participants completing month 12 of the 24-month VBP15-LTE study.
VBP15-002 (Phase IIa: two weeks on the drug, two weeks off drug) enrolled 48 corticosteroid-naïve participants with DMD, and all 48 participants completed the study and enrolled into VBP15-003 (Phase IIa extension: 24-week treatment). […]

DMD participants = experiment: Prespecified safety evaluation: height percentile for age and BMI z-score; assay type: in vivo, human
Method: As with the […] comparators, group-matching criteria were prespecified in the iSAP, and 2 independent statisticians carried out the participant matching. […] There was no corresponding 12-month assessment in vamorolone-treated participants. (Assessments of vamorolone-treated trial participants were 0, 3, 6, and 18 months). Standing height and weight were assessed at each study visit. Height z-score, body mass index (BMI: kg/m^2), and BMI z-score were calculated centrally. AE reporting was done per protocol in the vamorolone trials. The current study is the first to evaluate the longer-term tolerability, efficacy, and safety of vamorolone in DMD. […] Given the variable timing of dose escalations, it was prespecified that initial analyses of drug-related efficacy and safety would be limited to those participants who had 18 months of treatment with 2.0 mg/kg/day vamorolone or more (dose group C+dose group D: n=23). Outcomes for these participants were compared to a group-matched cohort from the […] over 18 months (corticosteroid-naïve, n=19: corticosteroid-treated, n=68). Participants were matched for age and treatment period (+1 month), matching criteria were prespecified in the statistical analysis plan. Two independent statisticians carried out the matching. […] Participants in the corticosteroid-treated […] group were treated for at least 18 months, but the total duration, dose, and regimens varied. Statistical analyses were done on paired longitudinal outcome data using an analysis of covariance (ANCOVA) approach with change from baseline (VBP15-002) to month 18 (midpoint of VBP15-LTE). Baseline response and age were included as covariates. For the vamorolone-treated participants, age was calculated as (date of informed consent minus birthdate)/365.25. For the DNHS participants, age was calculated as (date of baseline visit used minus birthdate)/365.25. The baseline visit for a DNHS participant was the first visit. […] Timed function tests were analyzed as velocity scores to limit the impact of participants who could not perform the test (velocity=0). Velocity measures are variance-stabilizing transformations, suppressing extreme raw outliers from raw values in seconds; these help with distributional assumptions of the statistical models/tests used. Raw data (seconds) are also reported. Velocity scores for […] (event/second), TTRW (meters/second), and […] (event/second) were inputted as 0 at the first response missing due to inability to perform the test. All other data were observed values only, without imputation. No adjustments for multiplicity on inferential statistics were specified in the iSAP.

ambulant boys with DMD = conditions: in vivo
[2] = 18 months, vamorolone 2.0 or 6.0 mg/kg/day, DNHS corticosteroid doses and regimens varied
[3] = vamorolone 18 months versus corticosteroid-naïve DNHS, ANCOVA

In the case of `C[C@@H]1C[C@H]2[C@@H]3CCC4=CC(=O)C=C[C@]4(C)C3=CC[C@]2(C)[C@@]1(O)C(=O)CO` [Vamorolone, 17α,21-dihydroxy-16α-methylpregna-1,4,9(11)-triene-3,20-dione], the dose-limiting toxicities ([1]; 0.25-6.0 mg/kg/day, 2 weeks of dosing) is reported as “no dose-limiting toxicities”, the drug accumulation ([1]; day 1 vs day 14) is reported as “no drug accumulation” and the “Mean BMI z-score, 18-month value (SD)” value (DMD participants; [2]) is reported as 1.46 (0.62). The “Mean BMI z-score, change from baseline (SD)” value (DMD participants; [2]) was 0.411 (0.615), the “Mean height percentile for age, 18-month value (SD)” value (DMD participants; [2]) was 35.24 (29.82) and the “Mean BMI z-score, change from baseline (SD)” value (DMD participants; 18 months, vamorolone 2.0 or 6.0 mg/kg/day, DNHS corticosteroid doses and regimens varied, listed as vamorolone) was 0.41. The “LS Mean change in height percentiles for age” value (DMD participants; DMD children treated with vamorolone, N = 22, 18 months treatment) was “+6.9”, the “BMI change from baseline to 18 months of treatment” value (shortened to “BMI change from baseline”) (DMD participants; original dose group B (0.75 mg/kg/day, escalated in LTE)) was 0.5 kg/m^2 and the “BMI change from baseline” value (DMD participants; original dose group C (2.0 mg/kg/day)) was 1.11 kg/m^2. The “BMI change from baseline” value (DMD participants; original dose group D (6.0 mg/kg/day)) was 2.55 kg/m^2, the “Mean height percentile for age, LS mean difference (SE)” value (DMD participants; vamorolone 18-month treatment versus prednisone trial 12-month treatment, ANCOVA) was 10.37 and the “Mean BMI z-score, LS mean difference (SE)” value (DMD participants; [3]) was 0.899 (0.204). For the same molecule, the “Mean height percentile for age, LS mean difference (SE)” value (DMD participants; [3]) was 6.72 (3.48), the “growth stunting (mean change in height percentile versus corticosteroid-treated DNHS)” value (DMD participants; vamorolone treatment group) was “no evidence of growth stunting” and the “Mean height percentile for age, LS mean difference (SE)” value (DMD participants; vamorolone versus corticosteroid-treated DNHS, 18 months, ANCOVA) was 15.86. For the same molecule, the “clinically relevant psychiatric events, subjects” value (ambulant boys with DMD) was “no vamorolone-treated subjects” and the “moderate/severe behavior problems, subjects” value (ambulant boys with DMD; male, human, 24 weeks) was 1.7%.
